In patent US20230365563A1, “QUINAZOLINE COMPOUND AND APPLICATION THEREOF” (SHANGHAI PHARMACEUTICALS HOLDING CO., LTD., priority 2020, published 2023):
Where a name gives a salt, the structure may show the parent alone.

Legend:
KRAS_G12D and cRAF = biological target: T1, KRAS_G12D and cRAF (Homo sapiens, UniProt P01116, G12D); test: Inhibition of KRAS_G12D/cRAF binding (Cisbio binding kit, 665/615 ratio), Effect Embodiment B; conditions: read-out: GTP-KRAS-G12D:CRAF IC50
T1 construct: purchased
Protocol: (§1) Similarly, the first dilution point of the compound to be tested was its storage solution, and the solution was 3-fold diluted, with 11+0 points of dilution. Echo was used to transfer 0.2 μL gradient diluted solution of the compounds into a 384-well plate, with 2 duplicated wells for each compound, and the final concentration of DMSO was 1%. The solution was centrifuged for 1 min at 1000 rpm/min.
(§2) IC50 of the compounds was fitted by Graphpad Prism 8 nonlinear regression equation: […]
(§3) The IC50 (half inhibitory concentration) of the compound was obtained by using the following nonlinear fitting formula: […]

KRAS-G12D and SOS1 = biological target: T2, KRAS-G12D and SOS1 (Homo sapiens, UniProt P01116, G12D); test: Inhibition of KRAS-G12D/SOS1 binding (Cisbio binding kit, 665/615 ratio), Effect Embodiment A; conditions: read-out: GTP-KRAS-G12D:SOS1 IC50
T2 construct: purchased
T2 sequence (P01116 1-188 isoform P01116-2 G12D): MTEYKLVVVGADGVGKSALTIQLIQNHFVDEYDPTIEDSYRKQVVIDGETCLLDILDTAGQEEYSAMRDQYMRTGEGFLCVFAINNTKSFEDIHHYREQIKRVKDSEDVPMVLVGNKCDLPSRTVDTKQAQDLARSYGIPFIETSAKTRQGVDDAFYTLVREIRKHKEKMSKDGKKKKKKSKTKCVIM
In short: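 Duplicate wells received an eleven-point, threefold compound titration whose top point was the stock solution; final DMSO 1%.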

KRAS_WT and SOS1 = biological target: T3, KRAS_WT and SOS1 (Homo sapiens, UniProt P01116); test: Inhibition of KRAS_WT/SOS1 binding (Cisbio binding kit, 665/615 ratio), Effect Embodiment C; conditions: read-out: GTP-KRAS-WT:SOS1 IC50
T3 construct: purchased
T3 sequence (P01116 1-188 isoform P01116-2): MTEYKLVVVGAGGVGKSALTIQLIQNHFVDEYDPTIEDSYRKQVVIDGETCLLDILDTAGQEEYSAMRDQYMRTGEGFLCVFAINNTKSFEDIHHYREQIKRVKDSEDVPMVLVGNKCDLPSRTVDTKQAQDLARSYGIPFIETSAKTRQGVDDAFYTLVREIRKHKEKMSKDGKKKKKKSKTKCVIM
Protocol: The inhibitory ability of small molecule compounds on the binding activity of KRAS_WT and SOS1 was examined by a drug screening system based on the combination of KRAS_WT and SOS1.
as §1, §2, §3

T1 sequence (P01116 1-188 isoform P01116-2 G12D): as the sequence (P01116 1-188 isoform P01116-2 G12D) above

| IC50 (KRAS_G12D and cRAF) | IC50 (KRAS-G12D and SOS1) | IC50 (KRAS_WT and SOS1) | Compound |
| --- | --- | --- | --- |
| 134 nM | 59.3 nM | 2130 nM | Oc1cc(-c2c(Cl)cc3c(N4CC5CCC(C4)N5)nc(OCCC4(N5CCCC5)CC4)nc3c2F)c2ccccc2c1 (single isomer, unassigned) [Compound 117, 4-((S or R)-4-((1R,5S)-3,8-diazabicyclo[3.2.1]octan-3-yl)-6-chloro-8-fluoro-2-(2-(1-(pyrrolidin-1-yl)cyclopropyl)ethoxy)quinazolin-7-yl)naphthalen-2-ol dihydrochloride] |
| 5.79 nM | 11.8 nM | 200 nM | C[C@@H](COc1nc(N2CC3CCC(C2)N3)c2cc(Cl)c(-c3cc(O)cc4ccc(F)cc34)c(F)c2n1)CN1C2CCC1COC2 (single isomer, unassigned) [Compound 234a, 4-((7S or 7R)-2-((2R)-3-(3-oxa-8-azabicyclo[3.2.1]octan-8-yl)-2-methylpropoxy)-4-((1R,5S)-3,8-diazabicyclo[3.2.1]octan-3-yl)-6-chloro-8-fluoroquinazolin-7-yl)-6-fluoronaphthalen-2-ol diformate] |
| 312 nM | 78.8 nM | 243 nM | CN1CCC[C@H]1COc1nc(N2CCN(C(=O)CN)[C@@H](CC#N)C2)c2cc(Cl)c(-c3cc(O)cc4ccccc34)c(F)c2n1 (single isomer, unassigned) [Compound 155, 2-((S)-4-((S or R)-6-chloro-8-fluoro-7-(3-hydroxynaphthalen-1-yl)-2-((S)-1-methylpyrrolidine-2-yl)methoxy)quinazolin-4-yl)-1-glycylpiperazin-2-yl)acetonitrile ditrifluoroacetate] |
| 180 nM | 42 nM | 2270 nM | CN1C[C@@H](F)C[C@H]1COc1nc(N2CC3CCC(C2)N3)c2cnc(-c3cc(O)cc4ccccc34)c(F)c2n1 [Compound 129, 4-(4-((1R,5S)-3,8-diazabicyclo[3.2.1]octan-3-yl)-8-fluoro-2-((2S,4S)-4-fluoro-1-methylpyrrolidin-2-yl)methoxy)pyridinyl[4.3-d]pyrimidin-7-yl)naphthalen-2-ol ditrifluoroacetate] |
| 168 nM | 51.8 nM | 2150 nM | C[C@H](COc1nc(N2CC3CCC(C2)N3)c2cc(Cl)c(-c3cc(O)cc4ccccc34)c(F)c2n1)CN(C)C (single isomer, unassigned) [Compound 202, 4-((S or R)-4-((1R,5S)-3,8-diazabicyclo[3.2.1]octan-3-yl)-6-chloro-2-((S)-3-(dimethylamino)-2-methylpropoxy)-8-fluoroquinazolin-7-yl)naphthalen-2-ol diformate] |
| 129 nM | 37.2 nM | 1920 nM | CN1CC(C)(C)C[C@H]1COc1nc(N2CC3CCC(C2)N3)c2cnc(-c3cc(O)cc4ccccc34)c(F)c2n1 [Compound 139, 4-(4-((1R,5S)-3,8-diazabicyclo[3.2.1]octan-3-yl)-8-fluoro-2-((S)-1,4,4-trimethylpyrrolidin-2-yl)methoxy)pyridinyl[4,3-d]pyrimidin-7-yl)naphthalen-2-ol diformate] |
| 303 nM | 104 nM | 4300 nM | C[C@@H]1COC[C@H](C)N1CCCOc1nc(N2CC3CCC(C2)N3)c2cc(Cl)c(-c3cc(O)cc4ccccc34)c(F)c2n1 (single isomer, unassigned) [Compound 175, (R or S)-4-(4-((1R,5S)-3,8-diazabicyclo[3.2.1]octan-3-yl)-6-chloro-2-(3-((3R,5S)-3,5-dimethylmorpholinyl)propoxy)-8-fluoroquinazolin-7-yl)naphthalen-2-ol formate] |
| 67.2 nM | 31.1 nM | 98.1 nM | Oc1cc(-c2c(Cl)cc3c(N4CC5CCC(C4)N5)nc(OCCCN4C5CCC4COC5)nc3c2F)c2c(F)c(F)ccc2c1 (single isomer, unassigned) [Compound 248, (4S or 4R)-4-(2-(3-(3-oxa-8-azabicyclo[3.2.1]octan-8-yl)propoxy)-4-(1R,5S)-3,8-diazabicyclo[3.2.1]octan-3-yl)-6-chloro-8-fluoroquinazolin-7-yl)-5,6-difluronaphththalen-2-ol formate] |
| 7910 nM | 419 nM | 44500 nM | Oc1cc(-c2c(Cl)cc3c(N4CC5CCC(C4)N5)nc(N4CCNCC4)nc3c2F)c2ccccc2c1 (single isomer, unassigned) [Compound 57b, 4-((R or S)-4-((1R,5S)-3,8-diazabicyclo[3.2.1]octan-3-yl)-6-chloro-8-fluoro-2-(piperazin-1-yl)quinazolin-7-yl)naphthalen-2-ol] |
| 259 nM | 76.7 nM | 6340 nM | Oc1cc(-c2c(Cl)cc3c(N4CC5CCC(C4)N5)nc(OCCN4CCCC(F)C4)nc3c2F)c2ccccc2c1 (single isomer, unassigned) [Compound 267a, 4-((R or S)-4-((1R,5S)-3,8-diazacyclo[3.2.1]octan-3-yl)-6-chloro-8-fluoro-2-(2-((S or R)-3-fluoropiperidin-1-yl)ethoxy)quinazolin-7-yl)naphthalen-2-ol formate] |
| 286 nM | 91.2 nM | 5830 nM | CC1OCCN(CCCOc2nc(N3CC4CCC(C3)N4)c3cc(Cl)c(-c4cc(O)cc5ccccc45)c(F)c3n2)C1C (single isomer, unassigned) [Compound 265a, 4-((R or S)-4-((1R,5S)-3,8-diazabicyclo[3.2.1]octan-3-yl)-6-chloro-2-(3-((2R or 2S, 3S or 3R)-2,3-dimethylmorpholinyl)propoxy)-8-fluoroquinazolin-7-yl)naphthalen-2-ol diformate] |
| 23.4 nM | 16.7 nM | 593 nM | C[C@@H](COc1nc(N2CC3CCC(C2)N3)c2cc(Cl)c(-c3cc(O)cc(Cl)c3C3CC3)c(F)c2n1)CN1C2CCC1COC2 (single isomer, unassigned) [Compound 227, 3-((7S or 7R)-2-((2R)-3-(3-oxa-8-azabicyclo[3.2.1]octan-8-yl)-2-methylpropoxy)-4-((1R,5S)-3,8-diazabicyclo[3.2.1]octan-3-yl)-6-chloro-8-fluoroquinazolin-7-yl)-5-chloro-4-cyclopropylphenol formate] |
| 22.4 nM | 18.7 nM | 458 nM | CN1C[C@H](F)C[C@H]1COc1nc(N2CC3CCC(C2)N3)c2cc(Cl)c(-c3cc(O)cc4ccccc34)c(F)c2n1 (single isomer, unassigned) [Compound 168, (R or S)-4-(4-((1R,5S)-3,8-diazabicyclo[3.2.1]octan-3-yl)-6-chloro-8-fluoro-2-((2S,4R)-4-fluoro-1-methylpyrrolidin-2-yl)methoxy)quinazolin-7-yl)naphthalenol dihydrochloride] |
| 39 nM | 19.8 nM | 1100 nM | CC(C)(COc1nc(N2CC3CCC(C2)N3)c2cc(Cl)c(-c3cc(O)cc4ccccc34)c(F)c2n1)CN1CCCC1 (single isomer, unassigned) [Compound 102, 4-((S or R)-4-((1R,5S)-3,8-diazabicyclo[3.2.1]octan-3-yl)-6-chloro-2-(2,2-dimethyl-3-(pyrrolidin-1-yl)propoxy)-8-fluoroquinazolin-7-yl)naphthalen-2-ol dihydrochloride] |
| 62.7 nM | 19.3 nM | 658 nM | Oc1cc(-c2c(Cl)cc3c(N4CC5CCC(C4)N5)nc(OC[C@@H]4CCCN4CC4CC4)nc3c2F)c2ccccc2c1 [Compound 172, 4-(4-((1R,5S)-3,8-diazabicyclo[3.2.1]octan-3-yl)-6-chloro-2-((S)-1-(cyclopropylmethyl)pyrrolidin-2-yl)methoxy)-8-fluoroquinazolin-7-yl)naphthalen-2-ol dihydrochloride] |
| 156 nM | 34.3 nM | 2970 nM | CN1CCCC1CCOc1nc(N2CC3CCC(C2)N3)c2cc(Cl)c(-c3cc(O)cc4ccccc34)c(F)c2n1 (single isomer, unassigned) [Compound 96b, 4-((S or R)-4-((1R,5S)-3,8-diazabicyclo[3.2.1]octan-3-yl)-6-chloro-8-fluoro-2-(2-((R or S)-1-methylpyrrolidin-2-yl)ethoxy)quinazolin-7-yl)naphthalen-2-ol] |
| 30.5 nM | 16 nM | 394 nM | C[C@@H]1C[C@@H](COc2nc(N3CC4CCC(C3)N4)c3cnc(-c4cc(O)cc5ccccc45)c(F)c3n2)N(C)C1 [Compound 142, 4-(4-((1R,5S)-3,8-diazabicyclo[3.2.1]octan-3-yl)-2-((2S,4R)-1,4-methylpyrrolidin-2-yl)methoxy)-8-fluoropyridinyl[4,3-d]pyrimidin-7-yl)naphthalen-2-ol diformate] |
| 139 nM | 38.3 nM | 1020 nM | Oc1cc(-c2c(Cl)cc3c(N4CC5CCC(C4)N5)nc(OCCCN4CCCCC4)nc3c2F)c2ccccc2c1 (single isomer, unassigned) [Compound 66a, 4-((S or R)-4-((1R,5S)-3,8-diazabicyclo[3.2.1]octan-3-yl)-6-chloro-8-fluoro-2-(3-(piperidin-1-yl)propoxy)quinazolin-7-yl)naphthalen-2-ol] |

| Compound | IC50 (KRAS_G12D and cRAF) | IC50 (KRAS-G12D and SOS1) | IC50 (KRAS_WT and SOS1) |
| --- | --- | --- | --- |
| CN(C)CCCCOc1nc(N2CC3CCC(C2)N3)c2cc(Cl)c(-c3cc(O)cc4ccccc34)c(F)c2n1 (single isomer, unassigned) [Compound 60a, 4-((S or R)-4-((1R,5S)-3,8-diazabicyclo[3.2.1]octan-3-yl)-6-chloro-2-(4-(dimethylamino)butoxy)-8-fluoroquinazolin-7-yl)naphthalen-2-ol] | 357 nM | 63 nM | 5900 nM |
